Assays:
[1] = tested on: spring wheat (Triticum aestivum); test: Spring wheat field trial 2011: emergence, vigor, tillering, biomass, yield; type: in vivo; conditions: for Spring Wheat Crop Vigor (1-5 scale): vigor scale of Example 3; for Spring Wheat Biomass: 82 DAP, aerial portion
Description: A field trial was conducted to evaluate the effects of NPG on plant emergence, vigor, tillering, biomass and yield in spring wheat (Triticum aestivum) planted near Breslau, Ontario, Canada, in 2011. Seed treatments included an Untreated Control, 10^−7 M NPG applied as a seed treatment, 10^−7 M NPG followed by two foliar NPG applications, 10^−6 M natural LCO, and 10^−6 M commercial LCO plus a commercial rhizobia inoculant (LCO+RI). The natural LCO was provided by Dr. Don Smith (McGill University, Montreal, Canada) and prepared as described in Example 2. Seed coating was performed by injecting 7 mL of aqueous NPG solution per 100 g wheat seed into a coating machine followed by treatment and drying. […] Seed designated for use as the Untreated Check also received the fungicide maintenance treatment.
Treated seeds were sent to the DuPont Breslau, Ontario Research Station and planted on June 8th in a loam composed of 34% sand, 48% silt and 18% clay and 2.9% organic matter. […] Spring wheat was planted at a rate of 100 kg seeds/ha to a depth of 3 cm. Weeds were controlled using 8.79 wt % fenoxyprop-P-ethyl at a rate of 770 mL/ha and a mixture of 33.33 wt % thifensulfuron methyl and 16.67 wt % tribenuron methyl at a rate of 30 g/ha. Disease was controlled using 23.6 wt % pyraclostrobin fungicide at a rate of 0.4 L/ha. All of the products used are considered industry standards and representative of what is used in commercial production.
The trial was conducted using a randomized complete block design with a plot size of 2.5 m by 8 m with 17.8 cm row spacing, 3.3 cm plant spacing and four replications.
Foliar NPG applications were performed 36 and 49 days after planting. The treatments were sprayed using a 4 nozzle hollow-cone boom and CO2 propellant at a speed of 4.5 km/h and 40 psi. The 36 day application utilized a mix size of 2.0 L and spray rate of 200 L/ha water volume. The 49 day application utilized a mix size of 3.0 L and spray rate of 300 L/ha water volume.
Plant Biomass was determined at 82 DAP by harvesting the entire aerial portion of the plants from each plot (Table 17). A non-statistically significant increase in biomass was determined for the NPG, LCO+RI, and LCO treatments compared to the Untreated Control.
Yield was determined by harvesting the entire 8 m of the plot and transforming the data to kg/ha (Table 18). Yields are not corrected for differences in emergence rates.

[2] = tested on: canola (Brassica napus) Pioneer hybrid 45H29; test: Canola field trials 2011: early growth, days to maturity, height, yield; type: in vivo; conditions: at plant maturity, averaged across three locations; NPG 10^−7 M, LCO/rhizobia at manufacturers' recommended rates
Description: Three canola (Brassica napus) field trials were conducted in the spring of 2011 to evaluate the effects of NPG on early growth, days to maturity, height and yield for Pioneer hybrid 45H29 planted at research sites near Carman, Neepawa, and Treherne (Manitoba, Canada) in 2011. Seed treatments included an Untreated Control, 10^−7 M NPG, and a mixture of a commercial LCO and rhizobia. An aqueous solution of NPG was applied at 0.25 L/100 kg seed by soaking the seeds in aqueous solutions of the respective treatments for 15 minutes followed by air drying on a tray. Untreated Control seeds were treated identically with the exception of being soaked in water without added NPG, LCO or rhizobia. The LCO/rhizobia mixture was applied to seeds at the manufacturers' recommended rates. […]
Early growth was scored on a 1-9 scale using a subjective evaluation of the ‘healthiness’ of plants and the soil surface area covered by their leaves when the plants are in the 4-6 leaf stage. […]
Days to maturity was measured from time of planting to physiological maturity, which was recorded in days from planting until the seeds in the pod, one third of the way up the main raceme, changed color to black in 50% of the plants in a given row or plot. […]
Plant height was measured at plant maturity. […]
Yield was measured in bushels per acre of mature seed. […]

[3] = 10^−7M seed treatment + Foliar, 35 DAP

CCCCCCC=CCCCCCCCC(=O)NC1C(OC)OC(CO)C(O)C1O [NPG, Methyl 2-deoxy-2-N-(hexadece-9,10-cis-eneoyl)-β-D-glucopyranoside]
Spring Wheat Yield ([1]; 10^−7M seed treatment): 1100a kg/ha
Spring Wheat Yield ([1]; 10^−7M seed treatment + Foliar): 1188a kg/ha
Wheat Crop Emergence ([1]; 10^−7M seed treatment + Foliar, 13 DAP): 53a %
Spring Wheat Tillering [1, 3]: 8.0a tillers/plant
Wheat Crop Emergence [1, 3]: 100a %
Spring Wheat Crop Vigor (1-5 scale) [1, 3]: 3.6a
Spring Wheat Crop Vigor (1-5 scale) ([1]; 10^−7M seed treatment + Foliar, 40 DAP): 3.5b
Spring Wheat Crop Vigor (1-5 scale) ([1]; 10^−7M seed treatment + Foliar, 52 DAP): 3.5a
Spring Wheat Biomass ([1]; 10^−7M seed treatment + Foliar): 0.198a kg/plant
Wheat Crop Emergence ([1]; 10^−7M seed treatment, 13 DAP): 53a %
Spring Wheat Tillering ([1]; 10^−7M seed treatment, 35 DAP): 9.0a tillers/plant
Wheat Crop Emergence ([1]; 10^−7M seed treatment, 35 DAP): 100a %
Spring Wheat Crop Vigor (1-5 scale) ([1]; 10^−7M seed treatment, 35 DAP): 3.4a
Spring Wheat Crop Vigor (1-5 scale) ([1]; 10^−7M seed treatment, 40 DAP): 3.5b
Spring Wheat Crop Vigor (1-5 scale) ([1]; 10^−7M seed treatment, 52 DAP): 3.4a
Spring Wheat Biomass ([1]; 10^−7M seed treatment): 0.190a kg/plant
Plant height [2]: 114.2 cm
